# Source: publication PMC8813674 (Computational and Structural Biotechnology Journal, 2022)
# Like-named read-outs stand apart in the source and are kept apart here.
# How the values were obtained:
# [1] = system: porcine epidemic diarrhea virus (PEDV); experiment: microbe, parasite or virus in culture; settings: 15 h, read-out: EC50 ± SD
# [2] = system: porcine epidemic diarrhea virus (PEDV); settings: for SI (=CC50/EC50): CC50 in eGFP-Vero cells / EC50 against mCherry-PEDV
compound,measurement,setting,value
CCC(CC)COC(=O)[C@H](C)N[P@](=O)(OC[C@H]1O[C@@](C#N)(c2ccc3c(N)ncnn23)[C@H](O)[C@@H]1O)Oc1ccccc1 [Remdesivir],EC50,[1],2710 ± 700 nM
same,Antiviral effect (mCherry expression and syncytia formation),"[2]; 50 µM, 15 h post-infection",completely inhibited
same,SI (=CC50/EC50),[2],>37
same,SI (=CC50/EC50),[2]; listed as remdesivir,> 37
